From PubChem BioAssay (NCI)
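48-hour exposure; five concentrations; linearly interpolated endpoints. Here, GI50 denotes the concentration required for 50% inhibition of growth. TGI denotes the concentration required for complete inhibition of growth.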

Columns and labels:
Assay in all cases: inhibition of tumour cell growth, NCI panel, 48 h
HCT-116 colon = test system: HCT-116 colon
MDA-MB-231 breast = test system: MDA-MB-231 breast
SNB-19 CNS = test system: SNB-19 CNS
KM12 colon = test system: KM12 colon
OVCAR-3 ovarian = test system: OVCAR-3 ovarian
BT-549 breast = test system: BT-549 breast
SK-MEL-2 melanoma = test system: SK-MEL-2 melanoma
MOLT-4 leukemia = test system: MOLT-4 leukemia
MDA-MB-435 = test system: MDA-MB-435
SK-MEL-28 melanoma = test system: SK-MEL-28 melanoma
NCI-H23 lung = test system: NCI-H23 lung
SF-295 CNS = test system: SF-295 CNS
OVCAR-5 ovarian = test system: OVCAR-5 ovarian
SW-620 colon = test system: SW-620 colon
UO-31 renal = test system: UO-31 renal
CAKI-1 renal = test system: CAKI-1 renal
HS 578T breast = test system: HS 578T breast
M14 melanoma = test system: M14 melanoma
EKVX NSCLC = test system: EKVX NSCLC
ACHN renal = test system: ACHN renal
NCI/ADR-RES ovarian = test system: NCI/ADR-RES ovarian
TK-10 renal = test system: TK-10 renal
OVCAR-4 ovarian = test system: OVCAR-4 ovarian
SK-MEL-5 melanoma = test system: SK-MEL-5 melanoma
IGROV1 ovarian = test system: IGROV1 ovarian
SNB-75 CNS = test system: SNB-75 CNS
RXF 393 renal = test system: RXF 393 renal
HCC-2998 colon = test system: HCC-2998 colon
UACC-62 melanoma = test system: UACC-62 melanoma
SN12C renal = test system: SN12C renal
RPMI-8226 leukemia = test system: RPMI-8226 leukemia
MALME-3M melanoma = test system: MALME-3M melanoma
NCI-H460 lung = test system: NCI-H460 lung
A549 NSCLC = test system: A549 NSCLC
NCI-H226 lung = test system: NCI-H226 lung
OVCAR-8 ovarian = test system: OVCAR-8 ovarian
A498 renal = test system: A498 renal
SF-268 CNS = test system: SF-268 CNS
COLO 205 colon = test system: COLO 205 colon
HCT-15 colon = test system: HCT-15 colon
NCI-H522 lung = test system: NCI-H522 lung
HT29 colon = test system: HT29 colon
SF-539 CNS = test system: SF-539 CNS
786-0 renal = test system: 786-0 renal
U251 CNS = test system: U251 CNS
DU-145 prostate = test system: DU-145 prostate
UACC-257 melanoma = test system: UACC-257 melanoma
SR leukemia = test system: SR leukemia
T-47D breast = test system: T-47D breast
HOP-92 NSCLC = test system: HOP-92 NSCLC
PC-3 prostate = test system: PC-3 prostate
MCF7 breast = test system: MCF7 breast
CCRF-CEM leukemia = test system: CCRF-CEM leukemia
SK-OV-3 ovarian = test system: SK-OV-3 ovarian
K-562 leukemia = test system: K-562 leukemia
HOP-62 NSCLC = test system: HOP-62 NSCLC
LOX IMVI melanoma = test system: LOX IMVI melanoma

## COC(=O)c1ccc2c(c1)C(=O)c1c-2n(CCCN)c(=O)c2cc(OC)c(OC)cc12
HCT-116 colon
  GI50: 16.5 µM
  TGI: 39.7 µM
MDA-MB-231 breast
  GI50: 13.6 µM
  TGI: 31.5 µM
SNB-19 CNS
  GI50: 19.5 µM
  TGI: 42.6 µM
KM12 colon
  GI50: 7.47 µM
  TGI: 26 µM
OVCAR-3 ovarian
  GI50: 10.2 µM
  TGI: > 56.8 µM
BT-549 breast
  GI50: 17.1 µM
  TGI: 35.4 µM
SK-MEL-2 melanoma
  GI50: 31.2 µM
  TGI: > 84.5 µM
MOLT-4 leukemia
  GI50: 1830 nM
  TGI: 4.67 µM
MDA-MB-435
  GI50: 21.6 µM
  TGI: 46.2 µM
SK-MEL-28 melanoma
  GI50: 17.9 µM
  TGI: 35.2 µM
NCI-H23 lung
  GI50: 17.1 µM
  TGI: 33.5 µM
SF-295 CNS
  GI50: 17.9 µM
  TGI: 37.3 µM
OVCAR-5 ovarian
  GI50: 18.8 µM
  TGI: 33.9 µM
SW-620 colon
  GI50: 7.9 µM
  TGI: 24.4 µM
UO-31 renal
  GI50: 21 µM
  TGI: > 56.2 µM
CAKI-1 renal
  GI50: 18.6 µM
  TGI: 37.2 µM
HS 578T breast
  GI50: 18.5 µM
  TGI: 42.1 µM
M14 melanoma
  GI50: 18.7 µM
  TGI: 34.4 µM
EKVX NSCLC
  GI50: 17.7 µM
  TGI: 38.6 µM
ACHN renal
  GI50: 14.8 µM
  TGI: 29.8 µM
NCI/ADR-RES ovarian
  GI50: 42.6 µM
  TGI: > 100 µM
TK-10 renal
  GI50: 16.9 µM
  TGI: 37.3 µM
OVCAR-4 ovarian
  GI50: 19.8 µM
  TGI: 40 µM
SK-MEL-5 melanoma
  GI50: 17.4 µM
  TGI: 34.3 µM
IGROV1 ovarian
  GI50: 13.6 µM
  TGI: 29.2 µM
SNB-75 CNS
  GI50: 16.5 µM
  TGI: 32.9 µM
RXF 393 renal
  GI50: 21.6 µM
  TGI: > 52 µM
HCC-2998 colon
  GI50: 11.9 µM
  TGI: 25.9 µM
UACC-62 melanoma
  GI50: 15.4 µM
  TGI: 30.2 µM
SN12C renal
  GI50: 14.9 µM
  TGI: 31.4 µM
RPMI-8226 leukemia
  GI50: 5.77 µM
  TGI: 12.5 µM
MALME-3M melanoma
  GI50: 18.7 µM
  TGI: 45.7 µM
NCI-H460 lung
  GI50: 13 µM
  TGI: 29.5 µM
A549 NSCLC
  GI50: 7.49 µM
  TGI: 27.2 µM
NCI-H226 lung
  GI50: 16.7 µM
  TGI: 36.7 µM
OVCAR-8 ovarian
  GI50: 14.5 µM
  TGI: > 55 µM
A498 renal
  GI50: 17.4 µM
  TGI: 36.2 µM
SF-268 CNS
  GI50: 18.6 µM
  TGI: 42 µM
COLO 205 colon
  GI50: 12.4 µM
  TGI: 27.7 µM
HCT-15 colon
  GI50: 14.1 µM
  TGI: 30.5 µM
NCI-H522 lung
  GI50: 17.1 µM
  TGI: 37.2 µM
HT29 colon
  GI50: 13.8 µM
  TGI: 31.4 µM
SF-539 CNS
  GI50: 17.7 µM
  TGI: 34.7 µM
786-0 renal
  GI50: 9.72 µM
  TGI: 28.1 µM
U251 CNS
  GI50: 16 µM
  TGI: 32.1 µM
DU-145 prostate
  GI50: 7.89 µM
  TGI: 22.8 µM
UACC-257 melanoma
  GI50: 14.5 µM
  TGI: > 41.5 µM
SR leukemia
  GI50: 1980 nM
  TGI: 4.39 µM
T-47D breast
  GI50: 18.9 µM
  TGI: 44.9 µM
HOP-92 NSCLC
  GI50: 14.2 µM
  TGI: 32.1 µM
PC-3 prostate
  GI50: 8.73 µM
  TGI: > 51.4 µM
MCF7 breast
  GI50: 8.79 µM
  TGI: 29.3 µM
CCRF-CEM leukemia
  GI50: 3.78 µM
  TGI: 10.2 µM
SK-OV-3 ovarian
  GI50: 20.3 µM
  TGI: 49.4 µM
K-562 leukemia
  GI50: 2410 nM
  TGI: 5.44 µM
HOP-62 NSCLC
  GI50: 6.09 µM
  TGI: > 52.9 µM
LOX IMVI melanoma
  GI50: 14.6 µM
  TGI: 32 µM
